ChEMBL document CHEMBL1201862, “PubChem BioAssay data set” (2004)
Calls of active or inactive are those of the source.

Experiments:
[1] = molecular target: Delta-type opioid receptor (Homo sapiens, UniProt P41143); test: SAR Analysis of Antagonists of the DOR Receptor using an Image-Based Assay - Set 3. [Related pubchem assays (depositor defined):AID1777, AID1785]; assay type: functional;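 also: U2OS cells expressing DOR1 and beta-arrestin GFP stimulated with 100 nM SNC80; imaging of GFP-tagged beta-arrestin moving into spots after receptor activation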
Chain of Delta-type opioid receptor (P41143 whole entry): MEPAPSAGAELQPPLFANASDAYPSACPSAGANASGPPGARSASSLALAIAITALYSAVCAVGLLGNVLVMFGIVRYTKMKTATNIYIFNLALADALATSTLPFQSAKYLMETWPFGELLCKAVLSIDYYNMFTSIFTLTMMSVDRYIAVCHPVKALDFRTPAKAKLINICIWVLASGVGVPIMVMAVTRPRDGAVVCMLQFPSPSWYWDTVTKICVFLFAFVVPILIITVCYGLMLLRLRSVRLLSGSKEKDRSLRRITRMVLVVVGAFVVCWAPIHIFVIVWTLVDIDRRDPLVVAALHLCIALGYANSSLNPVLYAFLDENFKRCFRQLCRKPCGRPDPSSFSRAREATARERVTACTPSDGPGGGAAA

Mu-type opioid receptor = Mu-type opioid receptor (Homo sapiens, UniProt P35372); test: SAR Analysis of Antagonists of the MOR Receptor using an Image-Based Assay - Set 3. [Related pubchem assays (depositor defined):AID1777, AID1785, AID1786, AID1966, AID2133, AID2136, AID2284, AID2285, AID2420]; assay type: functional
[2] = molecular target: T1, Kappa-type opioid receptor (Homo sapiens, UniProt P41145); test: SAR analysis of small molecule agonists of the kappa opioid receptor via a luminescent beta-arrestin assay - Set 3. [Related pubchem assays (depositor defined):AID1777, AID1785, AID1786, AID1966, AID2133, AID2136, AID2284, AID2500]; assay type: functional
T1 sequence (P41145 whole entry): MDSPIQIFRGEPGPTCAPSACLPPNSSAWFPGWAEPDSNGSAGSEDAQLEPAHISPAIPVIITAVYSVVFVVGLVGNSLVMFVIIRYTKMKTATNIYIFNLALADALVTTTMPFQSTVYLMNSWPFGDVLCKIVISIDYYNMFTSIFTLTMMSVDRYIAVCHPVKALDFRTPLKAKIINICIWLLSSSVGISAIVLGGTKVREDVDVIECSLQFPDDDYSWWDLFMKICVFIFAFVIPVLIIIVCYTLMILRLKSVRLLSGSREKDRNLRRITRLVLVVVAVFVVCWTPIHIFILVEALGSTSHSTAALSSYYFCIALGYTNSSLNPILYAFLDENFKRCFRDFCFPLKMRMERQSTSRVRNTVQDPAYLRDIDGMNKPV

[3] = molecular target: T1, Kappa-type opioid receptor; test: SAR analysis of Antagonists of the Kappa Opioid Receptor (KOR) using an Image-Based Assay - Set 4. [Related pubchem assays (depositor defined):AID1777, AID1785]; assay type: functional
[4] = molecular target: Induced myeloid leukemia cell differentiation protein Mcl-1 (Homo sapiens, UniProt Q07820); assay type: functional
Chain of Induced myeloid leukemia cell differentiation protein Mcl-1 (Q07820 whole entry): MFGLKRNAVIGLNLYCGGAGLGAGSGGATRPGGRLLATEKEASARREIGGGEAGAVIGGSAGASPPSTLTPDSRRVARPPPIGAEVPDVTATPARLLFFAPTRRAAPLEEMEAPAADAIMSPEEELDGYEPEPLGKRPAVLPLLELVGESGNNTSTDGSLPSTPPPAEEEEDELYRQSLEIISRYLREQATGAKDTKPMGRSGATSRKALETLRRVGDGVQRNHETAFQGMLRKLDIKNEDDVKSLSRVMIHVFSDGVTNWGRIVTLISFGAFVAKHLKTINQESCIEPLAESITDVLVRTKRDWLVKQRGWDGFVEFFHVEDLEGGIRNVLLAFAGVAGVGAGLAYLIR

[5] = molecular target: Eukaryotic translation initiation factor 4H (Homo sapiens, UniProt Q15056); test: human eIF4H binding inhibitors, primary screen, translation initiation inhibitor project, biochemical, uHTS, fluorescence polarization (AID 2012)
[6] = molecular target: Ras and Rab interactor 1/Tyrosine-protein kinase ABL1 (Homo sapiens, UniProt P00519+Q13671); assay type: functional;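 also: biochemical TR-FRET dose-response test measuring inhibition of binding between Rin1 and Abl proteins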
[7] = molecular target: Intestinal-type alkaline phosphatase (Homo sapiens, UniProt P09923); test: activation of human intestinal alkaline phosphatase – biochemical, dose response (AID 488873); assay type: functional
Chain of Intestinal-type alkaline phosphatase (Homo sapiens, UniProt P09923) (P09923 whole entry): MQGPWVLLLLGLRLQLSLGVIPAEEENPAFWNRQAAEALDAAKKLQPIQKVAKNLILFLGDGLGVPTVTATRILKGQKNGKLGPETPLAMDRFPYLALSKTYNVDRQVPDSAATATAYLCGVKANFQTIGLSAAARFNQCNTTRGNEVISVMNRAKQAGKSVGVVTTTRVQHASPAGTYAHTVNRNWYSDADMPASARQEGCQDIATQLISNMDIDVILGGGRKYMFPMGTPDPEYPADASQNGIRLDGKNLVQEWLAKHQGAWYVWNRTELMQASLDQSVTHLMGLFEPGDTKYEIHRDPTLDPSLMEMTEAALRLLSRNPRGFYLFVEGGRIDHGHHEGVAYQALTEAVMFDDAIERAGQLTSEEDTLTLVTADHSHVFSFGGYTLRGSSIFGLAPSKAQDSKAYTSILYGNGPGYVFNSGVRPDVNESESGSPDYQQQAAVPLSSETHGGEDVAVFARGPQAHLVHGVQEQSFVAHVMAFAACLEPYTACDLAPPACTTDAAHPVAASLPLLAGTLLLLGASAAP

[8] = molecular target: Polyadenylate-binding protein 1 (Homo sapiens, UniProt P11940); test: PABP poly(A) RNA binding inhibitors, primary screen, biochemical, fluorescence polarization, uHTS (AID 2014)
Chain of Polyadenylate-binding protein 1 (P11940 whole entry): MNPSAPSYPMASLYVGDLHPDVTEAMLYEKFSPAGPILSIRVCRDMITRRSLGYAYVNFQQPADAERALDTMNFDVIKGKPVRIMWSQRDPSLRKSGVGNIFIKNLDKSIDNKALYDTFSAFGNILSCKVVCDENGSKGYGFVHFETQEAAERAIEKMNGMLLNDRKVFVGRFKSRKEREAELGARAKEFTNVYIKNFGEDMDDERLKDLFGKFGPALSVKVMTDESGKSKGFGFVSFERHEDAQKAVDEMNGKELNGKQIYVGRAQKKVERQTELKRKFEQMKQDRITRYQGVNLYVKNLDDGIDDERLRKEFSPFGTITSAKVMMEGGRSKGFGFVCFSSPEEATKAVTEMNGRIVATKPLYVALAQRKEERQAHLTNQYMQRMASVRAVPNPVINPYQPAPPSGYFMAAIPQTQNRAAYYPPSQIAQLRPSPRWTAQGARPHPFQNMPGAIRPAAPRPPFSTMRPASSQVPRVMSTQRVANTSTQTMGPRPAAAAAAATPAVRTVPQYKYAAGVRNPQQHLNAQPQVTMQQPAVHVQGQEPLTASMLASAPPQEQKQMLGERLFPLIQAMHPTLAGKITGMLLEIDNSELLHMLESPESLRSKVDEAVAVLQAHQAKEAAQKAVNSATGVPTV

Caspase-6 = molecular target: T2, Caspase-6 (Homo sapiens, UniProt P55212); test: human caspase-6 inhibitors, dose response, biochemical, VEID-R110 fluorescence, cherry-pick (AID 720632)
T2 sequence (P55212 whole entry): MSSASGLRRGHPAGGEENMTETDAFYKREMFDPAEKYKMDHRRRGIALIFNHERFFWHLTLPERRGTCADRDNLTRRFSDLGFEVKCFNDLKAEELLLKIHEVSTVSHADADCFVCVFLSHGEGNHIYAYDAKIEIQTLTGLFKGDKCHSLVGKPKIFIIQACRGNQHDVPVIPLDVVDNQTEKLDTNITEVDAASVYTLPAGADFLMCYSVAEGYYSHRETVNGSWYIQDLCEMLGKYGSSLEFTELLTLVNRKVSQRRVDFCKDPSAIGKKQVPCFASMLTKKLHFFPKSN

[9] = molecular target: T3, Alkaline phosphatase, tissue-nonspecific isozyme (Homo sapiens, UniProt P05186); test: TNAP enzyme activators, dose response, selectivity assay for mouse IAP activator project, biochemical, TNAP isozyme, mouse IAP uHTS hits (AID 488880); assay type: functional
T3 sequence (P05186 whole entry): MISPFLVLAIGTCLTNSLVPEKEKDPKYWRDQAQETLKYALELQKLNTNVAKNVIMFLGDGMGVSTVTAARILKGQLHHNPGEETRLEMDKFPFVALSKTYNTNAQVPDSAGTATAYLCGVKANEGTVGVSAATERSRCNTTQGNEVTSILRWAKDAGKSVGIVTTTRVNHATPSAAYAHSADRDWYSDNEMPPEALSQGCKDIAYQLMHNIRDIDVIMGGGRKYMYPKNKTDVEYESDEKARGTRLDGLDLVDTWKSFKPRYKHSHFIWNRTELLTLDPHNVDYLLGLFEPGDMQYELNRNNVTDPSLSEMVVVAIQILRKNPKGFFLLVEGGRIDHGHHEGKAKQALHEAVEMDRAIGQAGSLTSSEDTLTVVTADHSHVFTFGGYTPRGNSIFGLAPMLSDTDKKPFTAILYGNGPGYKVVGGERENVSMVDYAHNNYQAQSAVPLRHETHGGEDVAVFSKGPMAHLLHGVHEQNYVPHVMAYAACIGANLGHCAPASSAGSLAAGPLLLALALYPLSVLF

[10] = molecular target: Intestinal-type alkaline phosphatase (Mus musculus, UniProt P24822); test: mouse intestinal alkaline phosphatase activators, dose response, biochemical, luminescence, uHTS hits (AID 488783); assay type: functional
Albumin = Albumin (Bos taurus, UniProt P02769); test: Counterscreen for inhibitors of T-cell receptor (TCR)-CD3 interaction: Fluorescence-based biochemical high throughput dose response assay to identify inhibitors of T-cell receptor (TCR)-CD3 interaction using a TAMRA-labeled BSA probe.; assay type: functional
Chain of Albumin (P02769 whole entry): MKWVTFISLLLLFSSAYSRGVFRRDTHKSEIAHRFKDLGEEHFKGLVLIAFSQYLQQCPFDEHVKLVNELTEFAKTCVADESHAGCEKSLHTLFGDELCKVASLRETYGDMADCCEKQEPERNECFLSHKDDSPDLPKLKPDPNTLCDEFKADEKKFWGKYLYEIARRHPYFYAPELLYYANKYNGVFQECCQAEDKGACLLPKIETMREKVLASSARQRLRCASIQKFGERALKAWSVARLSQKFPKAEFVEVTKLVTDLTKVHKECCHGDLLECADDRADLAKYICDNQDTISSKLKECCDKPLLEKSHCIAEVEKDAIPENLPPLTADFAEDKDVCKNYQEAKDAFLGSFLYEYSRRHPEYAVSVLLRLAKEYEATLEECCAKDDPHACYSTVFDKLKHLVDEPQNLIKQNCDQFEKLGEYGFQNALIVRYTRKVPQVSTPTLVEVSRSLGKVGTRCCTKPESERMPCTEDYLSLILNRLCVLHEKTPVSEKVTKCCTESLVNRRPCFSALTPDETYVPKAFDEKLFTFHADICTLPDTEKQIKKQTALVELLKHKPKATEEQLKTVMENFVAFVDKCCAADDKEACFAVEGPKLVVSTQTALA

Large T antigen = Large T antigen (Simian virus 40, UniProt P03070); assay type: functional, Betapolyomavirus macacae;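 also: Confirmatory-stage PubChem screen for compounds that inhibit SV40 T antigen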
Caspase-7 = Caspase-7 (Homo sapiens, UniProt P55210); test: human caspase-7 inhibitors, dose response, selectivity assay for caspase-6 inhibitor project, biochemical, DEVD-R110 fluorescence, cherry-pick (AID 743295)
Chain of Caspase-7 (P55210 24-198 limits assumed): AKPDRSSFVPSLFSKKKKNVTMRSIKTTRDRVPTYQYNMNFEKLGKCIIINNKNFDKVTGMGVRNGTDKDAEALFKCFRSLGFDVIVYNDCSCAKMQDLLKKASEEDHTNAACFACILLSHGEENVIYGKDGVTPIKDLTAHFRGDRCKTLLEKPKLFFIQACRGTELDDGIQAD
Chain of Caspase-7 (P55210 207-303 limits assumed): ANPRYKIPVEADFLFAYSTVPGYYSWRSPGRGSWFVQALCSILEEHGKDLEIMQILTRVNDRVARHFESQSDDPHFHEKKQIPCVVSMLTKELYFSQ

[11] = molecular target: T4, G-protein coupled receptor 55 (Homo sapiens, UniProt Q9Y2T6); test: GPR55 antagonists blocking LPI-driven arrestin recruitment, primary screen, imaging, U2OS, beta-arrestin-GFP, LPI agonist (AID 2013); assay type: functional;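 also: antagonist potency measured as reduced agonist-driven arrestin aggregation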
T4 sequence (Q9Y2T6 whole entry): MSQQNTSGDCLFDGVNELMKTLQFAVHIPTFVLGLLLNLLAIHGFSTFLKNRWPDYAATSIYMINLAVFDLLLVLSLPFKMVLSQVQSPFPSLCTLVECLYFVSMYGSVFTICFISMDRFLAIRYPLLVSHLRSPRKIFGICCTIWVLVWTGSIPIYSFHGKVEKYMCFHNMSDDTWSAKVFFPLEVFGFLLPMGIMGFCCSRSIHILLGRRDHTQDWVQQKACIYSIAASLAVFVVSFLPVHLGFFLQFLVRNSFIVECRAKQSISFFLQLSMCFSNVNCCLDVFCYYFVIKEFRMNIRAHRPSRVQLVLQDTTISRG

Cannabinoid receptor 2 [12] = molecular target: T5, Cannabinoid receptor 2 (Homo sapiens, UniProt P34972); test: SAR analysis of antagonists of the Cannabinoid Receptor 2 using an Image-Based Assay. [Related pubchem assays (depositor defined):AID2013, AID2026]; assay type: functional
T5 sequence (P34972 whole entry): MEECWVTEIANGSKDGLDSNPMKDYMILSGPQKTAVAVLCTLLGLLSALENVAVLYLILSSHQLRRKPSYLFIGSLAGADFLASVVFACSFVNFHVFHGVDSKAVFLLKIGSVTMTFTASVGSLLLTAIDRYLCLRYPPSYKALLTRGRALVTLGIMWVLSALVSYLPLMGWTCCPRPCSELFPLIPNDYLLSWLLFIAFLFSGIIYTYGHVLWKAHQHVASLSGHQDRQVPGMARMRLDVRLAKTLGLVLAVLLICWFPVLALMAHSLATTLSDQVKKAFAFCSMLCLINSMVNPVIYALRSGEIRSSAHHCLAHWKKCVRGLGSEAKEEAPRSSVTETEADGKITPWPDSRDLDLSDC

[13] = molecular target: T6, G-protein coupled receptor 35 (Homo sapiens, UniProt Q9HC97); test: SAR analysis of Agonists of the GPR35 Receptor using an Image-Based Assay - Set 2. [Related pubchem assays (depositor defined):AID2013, AID2026]; assay type: functional
T6 sequence (Q9HC97 whole entry): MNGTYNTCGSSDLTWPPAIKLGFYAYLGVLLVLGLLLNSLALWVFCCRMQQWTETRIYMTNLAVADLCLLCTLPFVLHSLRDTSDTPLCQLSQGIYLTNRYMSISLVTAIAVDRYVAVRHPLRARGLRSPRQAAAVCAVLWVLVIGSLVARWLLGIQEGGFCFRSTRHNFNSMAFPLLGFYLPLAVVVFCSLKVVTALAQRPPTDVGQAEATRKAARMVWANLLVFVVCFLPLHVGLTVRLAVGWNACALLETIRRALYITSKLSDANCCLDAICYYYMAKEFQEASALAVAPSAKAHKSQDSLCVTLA

Cannabinoid receptor 1 [14] = molecular target: T7, Cannabinoid receptor 1 (Homo sapiens, UniProt P21554); test: SAR analysis of agonists of the Cannabinoid Receptor 1 using an Image-Based Assay - Set 2. [Related pubchem assays (depositor defined):AID2013, AID2026]; assay type: functional
T7 sequence (P21554 whole entry): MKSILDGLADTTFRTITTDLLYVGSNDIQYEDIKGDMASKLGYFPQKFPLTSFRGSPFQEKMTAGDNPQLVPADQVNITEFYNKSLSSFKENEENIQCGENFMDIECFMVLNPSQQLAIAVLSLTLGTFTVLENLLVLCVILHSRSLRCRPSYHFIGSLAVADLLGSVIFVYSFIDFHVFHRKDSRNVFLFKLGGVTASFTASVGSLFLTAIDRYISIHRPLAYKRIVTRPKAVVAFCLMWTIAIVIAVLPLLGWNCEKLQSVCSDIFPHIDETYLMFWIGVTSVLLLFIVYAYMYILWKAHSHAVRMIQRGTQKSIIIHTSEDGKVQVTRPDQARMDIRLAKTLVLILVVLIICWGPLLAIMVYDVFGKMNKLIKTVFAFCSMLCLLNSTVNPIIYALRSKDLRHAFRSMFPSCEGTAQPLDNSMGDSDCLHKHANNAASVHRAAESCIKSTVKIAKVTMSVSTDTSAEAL

[15] = molecular target: T4, G-protein coupled receptor 55; test: GPR55 antagonist potency of analogs, SAR follow-up, imaging, U2OS, beta-arrestin-GFP, LPI agonist, set 2 (AID 2820); assay type: functional
Cannabinoid receptor 2 [16] = molecular target: T5, Cannabinoid receptor 2; test: SAR analysis of agonists of the Cannabinoid Receptor 2 using an Image-Based Assay. [Related pubchem assays (depositor defined):AID2013, AID2026]; assay type: functional
Streptokinase A = molecular target: T8, Streptokinase A (Streptococcus pyogenes serotype M1, UniProt P10520); test: S. pyogenes streptokinase expression inhibitors, potency, dose response, plasminogen activation absorbance, OD405 (AID 1914); assay type: functional, Streptococcus pyogenes M1 GAS;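 also: secreted streptokinase activity via plasminogen activation per viability signal from cell pellet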
T8 sequence (P10520 whole entry): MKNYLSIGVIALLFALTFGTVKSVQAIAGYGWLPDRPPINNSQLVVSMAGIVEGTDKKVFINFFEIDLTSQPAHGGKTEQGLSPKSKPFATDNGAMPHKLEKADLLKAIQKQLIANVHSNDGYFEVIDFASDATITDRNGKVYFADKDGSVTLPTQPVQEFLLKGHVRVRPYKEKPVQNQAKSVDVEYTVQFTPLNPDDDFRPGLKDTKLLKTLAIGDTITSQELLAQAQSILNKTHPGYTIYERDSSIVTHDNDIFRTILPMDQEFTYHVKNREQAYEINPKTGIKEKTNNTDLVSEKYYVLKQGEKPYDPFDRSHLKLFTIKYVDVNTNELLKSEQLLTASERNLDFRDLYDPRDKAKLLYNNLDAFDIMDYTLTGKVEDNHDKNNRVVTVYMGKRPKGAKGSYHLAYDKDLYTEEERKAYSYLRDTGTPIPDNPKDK

[17] = molecular target: T6, G-protein coupled receptor 35; test: SAR analysis of Antagonists of the GPR35 Receptor using an Image-Based Assay - Set 3. [Related pubchem assays (depositor defined):AID2013, AID2026]; assay type: functional
Cannabinoid receptor 1 [18] = molecular target: T7, Cannabinoid receptor 1; test: SAR analysis of antagonists of the Cannabinoid Receptor 1 using an Image-Based Assay - Set 2. [Related pubchem assays (depositor defined):AID2013, AID2026]; assay type: functional
[19] = molecular target: T9, Tyrosine-protein phosphatase non-receptor type 22 (Homo sapiens, UniProt Q9Y2R2); test: SAR LYP1 Fluorescent Assay using pCAP substrate for In Vitro dose response studies - Set 2. [Related pubchem assays (depositor defined):AID1779, AID1784, AID2135, AID449727]; assay type: functional
T9 sequence (Q9Y2R2 whole entry): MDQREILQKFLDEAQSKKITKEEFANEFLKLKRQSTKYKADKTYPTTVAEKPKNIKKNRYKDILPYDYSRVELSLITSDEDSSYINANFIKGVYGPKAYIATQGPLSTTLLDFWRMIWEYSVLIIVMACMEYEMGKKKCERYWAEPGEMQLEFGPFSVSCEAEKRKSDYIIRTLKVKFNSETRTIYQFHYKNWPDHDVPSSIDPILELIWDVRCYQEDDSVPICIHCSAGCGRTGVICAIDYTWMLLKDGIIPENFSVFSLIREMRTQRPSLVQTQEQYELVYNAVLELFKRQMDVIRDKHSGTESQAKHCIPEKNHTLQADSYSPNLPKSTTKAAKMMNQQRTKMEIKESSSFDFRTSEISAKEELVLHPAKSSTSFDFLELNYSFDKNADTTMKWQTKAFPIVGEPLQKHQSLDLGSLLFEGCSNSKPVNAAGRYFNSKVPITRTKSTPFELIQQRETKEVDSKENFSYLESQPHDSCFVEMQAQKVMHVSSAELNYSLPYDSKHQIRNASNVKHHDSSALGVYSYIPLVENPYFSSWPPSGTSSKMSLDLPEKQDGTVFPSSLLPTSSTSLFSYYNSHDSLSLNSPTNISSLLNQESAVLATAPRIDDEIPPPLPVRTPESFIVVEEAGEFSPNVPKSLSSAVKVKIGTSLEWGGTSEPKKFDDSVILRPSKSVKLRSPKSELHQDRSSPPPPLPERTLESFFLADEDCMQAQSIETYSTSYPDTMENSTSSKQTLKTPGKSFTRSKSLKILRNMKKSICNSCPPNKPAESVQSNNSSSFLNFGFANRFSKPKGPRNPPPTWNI

[20] = molecular target: T9, Tyrosine-protein phosphatase non-receptor type 22; test: SAR LYP1 Fluorescent Assay using OMFP substrate for In Vitro dose response studies - Set 3. [Related pubchem assays (depositor defined):AID1779, AID1784, AID2140, AID2686]; assay type: functional
[21] = molecular target: T10, Tyrosine-protein phosphatase non-receptor type 7 (Homo sapiens, UniProt P35236); test: HePTP (PTPN7) phosphatase inhibitor potency, SAR follow-up, biochemical, set 2 (AID 449736); assay type: functional
T10 sequence (P35236 whole entry): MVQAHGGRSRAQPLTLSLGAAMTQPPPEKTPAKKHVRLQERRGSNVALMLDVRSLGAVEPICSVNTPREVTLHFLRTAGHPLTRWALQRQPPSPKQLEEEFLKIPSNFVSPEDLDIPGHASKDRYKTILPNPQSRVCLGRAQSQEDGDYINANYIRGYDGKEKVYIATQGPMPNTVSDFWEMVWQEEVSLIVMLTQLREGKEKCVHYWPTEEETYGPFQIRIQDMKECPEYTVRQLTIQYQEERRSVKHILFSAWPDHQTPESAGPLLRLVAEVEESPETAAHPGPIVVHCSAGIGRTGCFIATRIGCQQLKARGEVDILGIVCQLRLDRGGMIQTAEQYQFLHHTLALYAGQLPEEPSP

[22] = molecular target: Tyrosine-protein phosphatase non-receptor type 12 (Homo sapiens, UniProt Q05209); test: SAR Selectivity Analysis of small molecule inhibitors of PEST using pCAP in a fluorescence assay. [Related pubchem assays (depositor defined):AID1779, AID1784, AID2135]; assay type: functional
[23] = molecular target: T9, Tyrosine-protein phosphatase non-receptor type 22; test: SAR LYP1 Fluorescent Assay using OMFP substrate for In Vitro dose response studies - Set 2. [Related pubchem assays (depositor defined):AID1779, AID1784, AID2140, AID449726, AID488869]; assay type: functional
[24] = molecular target: T9, Tyrosine-protein phosphatase non-receptor type 22; test: LYP (PTPN22) phosphatase inhibitor potency, SAR follow-up, biochemical, pCAP fluorogenic substrate, fluorescence, set 3 (AID 449727); assay type: functional

CC(C)OC(=O)C1(N(Cc2ccco2)C(=O)c2ccccn2)CCCCC1
IC50 [1]: > 32 µM (inactive)
IC50 (Mu-type opioid receptor): 15 µM (inactive)
EC50 [2]: > 20 µM (inactive)
IC50 [3]: > 32 µM (inactive)

O=C(O)CC(CCc1ccccc1)OC1OC(CO)C(O)C(O)C1O (stereo not given)
IC50 [4]: 1.61 µM (active)
IC50 [5]: 23.6 µM (active)
IC50 [6]: 50.2 µM (inactive)
EC50 [7]: 59.2 µM (active)
IC50 [8]: 69.4 µM (active)
AC50 (Caspase-6): 0.283 µM (active)
EC50 [9]: 57.6 µM (active)
EC50 [10]: 33.7 µM (active)
IC50 (Albumin): > 94.1 µM (inactive)
IC50 (Large T antigen): 57.6 µM (active)
AC50 (Caspase-7): 30.9 µM (active)

COc1ccc(NS(=O)(=O)c2ccc3nc(COc4cccc5ccccc45)[nH]c3c2)cc1
IC50 [11]: 1.76 µM (active)
IC50 (Cannabinoid receptor 2 [12]): > 32 µM (inactive)
EC50 [13]: > 32 µM (inactive)
EC50 (Cannabinoid receptor 1 [14]): > 32 µM (inactive)
IC50 [15]: 1.45 µM (active)
EC50 (Cannabinoid receptor 2 [16]): > 32 µM (inactive)
EC50 (Streptokinase A): 6.16 µM (active)
IC50 [17]: > 32 µM (inactive)
IC50 (Cannabinoid receptor 1 [18]): 2.24 µM (active)

O=C(O)COc1ccccc1/C=N/NC(=O)c1ccc(-c2csc(Nc3ccc(Cl)cc3)n2)cc1
IC50 [19]: 4.1 µM (active)
IC50 [20]: 1.29 µM (active)
IC50 [21]: 0.841 µM (active)
IC50 [22]: 1.49 µM (active)
IC50 [23]: 5.67 µM (active)
IC50 [24]: 3.5 µM (active)
